From US20240075087A1, “COMPOSITIONS AND METHODS COMPRISING HEMP EXTRACT FOR THE TREATMENT OF ANIMALS IN NEED” (Portland Technology Holdings LLC, priority 2021, published 2024)
Converted amounts (≈) assume the structure as drawn.

Experiments:
CMT12 cells = test: Trypan blue exclusion assay, CMT12; type: cell-based, canine; conditions: 48 hours, vehicle control 3±1%
Method: (§1) The trypan blue exclusion assay is performed on canine primary dermal fibroblasts (CDF) because of the slow rate of proliferation and low metabolic activity of these normal canine cells, precluding productive MTT assays. The effects of CBD treatments are compared with the results obtained on the 17-71, CMT12 and D17 cell lines for comparative purposes. For the CDF cells, applied cell extracellular matrix (ABM) is applied overnight to 24-well tissue culture-treated plates (Applied Biological Materials [ABM], Richmond, BC, Canada). For all cell lines, cells are plated at a density of 5×10^3 cells per well and incubated until 60% confluent before treatment with methanol vehicle control, 3.75, 7.5, and 15 μg/mL of CBD to cells for 48 hours. Cells are then trypsinized, collected and centrifuged at 1900 g for 10 minutes. With the exception of the 17-71 cell line, cells are detached with Accumax (Invitrogen, Carlsbad, California). The cell pellet is resuspended in 0.1% trypan blue (Sigma Aldrich, St Louis, Missouri) in PBS solution, loaded on a Cell Countess disposable cell counting slide with automatic counting of all positively stained cells in the Countess II Cell Counter under identical settings for each cell line (Invitrogen; ThermoFisher Scientific, Carlsbad, California) using the same parameters for each cell line. All treatments are performed in triplicate and the percent of viable cells are averaged.

[1] = test system: CMT12 mammary gland carcinoma cell line; test: 48 hours MTT proliferation assay, CMT12; type: cell-based, canine; conditions: pure compound
Method: 3-(4,5-Dimethylthaizol-2-yl)-2,5-diphenyltetrazolium bromide (MTT) assays are performed on all previously described cell lines; CMT12, HMPOS, D17, Abrams and 17-71. […] Cells are treated with vehicle (methanol or ethanol/DMSO mix) or various concentrations of the CBD, CBDA or CBD-rich hemp extract ranging from 0.42 to 20 μg/mL in serial dilution for 48 hours. MTT assays are performed after 48 hours of treatment by adding 20 μL of MTT dye ([…] filtered 5 mg/mL in phosphate-buffered saline [PBS]) to each well and incubating at 37° C. in 5% CO2 for 2 hours. The media is then aspirated, washed once with 200 μL of PBS and then solubilized in 200 μL of ethanol. Immediate analysis of the optical density of each well is performed using a spectrophotometric plate reader (Epoch; Biotek, Winooski, Vermont) at a wavelength of 570 nm as previously described (e.g., Vega-Avila E and Pugsley M K, An overview of colorimetric assay methods used to assess survival or proliferation of mammalian cells, Proc West Pharmacol Soc., 2011, 54, pp. 10-14 which is incorporated herein by reference in its entirety). The percent proliferating cells of control for each concentration is averaged and reported as a mean+/—SD from triplicate wells over three experiments.
For CBD, CBDA and hemp extract concentrations needed to obtain a 50% inhibition of cell proliferation (IC50) are then calculated across experiments by Probit analysis using XLFit5 software (IDBS, Guildford, United Kingdom) for reporting the results for each cell line.

D17 cells = test: Annexin V-FITC apoptosis assay, D17; type: cell-based, canine; conditions: 15 μg/mL CBD, 4 hours, VC 6.5±0.6%
Method: Apoptosis after 4 and 8 hours treatment is measured using Annexin-V staining (Invitrogen Annexin V-FITC staining kit, Carlsbad, California). Briefly, cells are detached with Accumax (Innovative Cell Technologies, San Diego, California), collected and centrifuged for 10 m at 1000 g at 4° C. The pellet is washed once with PBS before resuspension in Annexin Binding Buffer (ABB; 10 mM HEPES, 140 mM NaCl, 2.5 mM CaCl2, pH 7.4) at a density of approximately 1×10^6 cell/mL. […] After the incubation, ABB is added to the cell suspension and kept on ice until fluorescence is measured with the BD FACScalibur flow cytometer using an argon laser (BD Biosciences, Ashland, Oregon). Ten thousand events are collected per sample. Analysis is performed with the FlowJo software (Version 10.7.1. Becton, Dickinson, Ashland, Oregon) by first gating based on the forward- and side-scatter characteristics for each cell line followed by Annexin V-FITC positive cells. Negative fluorescence controls are unstained cells. Three independent replicates are examined for each treatment.

17-71 cells = test: Trypan blue exclusion assay, 17-71; type: cell-based, canine; conditions: 48 hours, vehicle control 3±1%
Method: as §1

CYP2B11 = target: T1, CYP2B11 (Canis lupus familiaris, UniProt P24460); test: CYP2B11 activity inhibition in pooled dog liver microsomes
T1 sequence (P24460 1-494): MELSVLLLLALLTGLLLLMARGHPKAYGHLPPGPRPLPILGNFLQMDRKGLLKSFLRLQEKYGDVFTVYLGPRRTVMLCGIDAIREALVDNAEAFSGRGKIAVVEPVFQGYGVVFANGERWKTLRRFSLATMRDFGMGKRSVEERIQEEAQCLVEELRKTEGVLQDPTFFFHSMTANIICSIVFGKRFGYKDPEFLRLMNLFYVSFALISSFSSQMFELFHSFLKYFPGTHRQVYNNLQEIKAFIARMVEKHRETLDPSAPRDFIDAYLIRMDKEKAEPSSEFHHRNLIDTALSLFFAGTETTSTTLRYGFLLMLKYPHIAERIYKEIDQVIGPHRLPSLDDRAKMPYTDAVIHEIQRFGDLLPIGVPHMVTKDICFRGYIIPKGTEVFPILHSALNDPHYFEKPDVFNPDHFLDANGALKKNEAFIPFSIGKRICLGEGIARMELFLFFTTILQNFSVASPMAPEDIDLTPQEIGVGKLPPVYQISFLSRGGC
Method: Inhibition potency (i.e. IC50) is determined by measuring the decrement in metabolism of P450-specific marker activities in pooled dog liver microsomes with increasing concentrations of CBD, CBDA, and hemp extracts. P450-specific markers include bupropion 6-hydroxylation (CYP2B11), dextromethorphan 0-demethylation (CYP2D15) and omeprazole sulfoxidation (CYP3A12). IC50 values are determined both with and without preincubation of liver microsomes with potential inhibitor to evaluate whether there is mechanism-based time-dependent inhibition.
The following parameters are assessed: (1) the rates of CBD and CBDA metabolism by dog liver microsomes and by 11 recombinant canine P450 enzymes; (2) the predicted percent contribution of each P450 to total CBD and CBDA metabolism in dog liver; and (3) IC50 values for inhibition of CYP2B11, CYP2D15 and CYP3A12 metabolism in dog liver, both with and without inhibitor preincubation.
FIGS. 13-15 show activity assays for CYP3A12 (FIGS. 13A and 13B), CYP2B11 (FIGS. 14A and 14B), and CYP2D15 (FIGS. 15A and 15B). Assays using either no preincubation (FIGS. 13A, 14A, and 15A) or 20 minutes of preincubation (FIGS. 13B, 14B, and 15B) were performed.

SMILES: C=C(C)[C@@H]1CCC(C)=C[C@H]1c1c(O)cc(CCCCC)cc1O [CBD, cannabidiol]
- percent trypan blue positive cells (CMT12 cells; 3.75 μg/mL CBD): 4±2%
- percent trypan blue positive cells (CMT12 cells; 7.5 μg/mL CBD): 9±3%
- percent trypan blue positive cells (CMT12 cells; 15 μg/mL CBD): 87%±8%
- IC50 ([1]; Canis lupus familiaris, read-out: IC50 (Probit)): 3.5 mg/L (≈ 11.1 µM)
- concentrations that significantly diminished proliferation vs vehicle control ([1]; P<0.05): ≥ 2.5 µg/mL
- Annexin V positive staining cells (D17 cells): 9.4±1.8%
- percent trypan blue positive cells (17-71 cells; 3.75 μg/mL CBD): 7±4%
- percent trypan blue positive cells (17-71 cells; 7.5 μg/mL CBD): 27±8%
- percent trypan blue positive cells (17-71 cells; 15 μg/mL CBD): 55%±6%
- IC50 (CYP2B11): < 1 µM
- time-dependent inhibition (TDI) (CYP2B11; CYP2B11, no preincubation vs 20 min preincubation, 10 μM): showed time-dependent inhibition (TDI)
